Results reported in patent US10457703B2, “Bile acid derivatives as FXR/TGR5 agonists and methods of use thereof” (ENANTA PHARMACEUTICALS, INC., priority 2015, dated 2019).

Molecular target: human FXR (NR1H4) (Homo sapiens (Human), UniProt Q96RI1)
Assay: Human FXR (NR1H4) Assay (Gal4 promoter driven luciferase reporter, Indigo Bioscience kit);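 on Efficacy (%): 100% equals the efficacy of CDCA; efficacy normalized to CDCA set as 100%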
Format: cell-based
Conditions: for EC50: Human FXR (NR1H4) Assay, potency ranges; for Emax: read-out: Efficacy (%)
Description: ASSAYS Human FXR (NR1H4) Assay
Determination of a ligand mediated Gal4 promoter driven transactivation to quantify ligand binding mediated activation of FXR. FXR Reporter Assay kit purchased from Indigo Bioscience (Catalogue number: IB00601) to determine the potency and efficacy of compound developed by Enanta that can induce FXR activation. The principle application of this reporter assay system is to quantify functional activity of human FXR. The assay utilizes non-human mammalian cells, CHO (Chinese hamster ovary) cells engineered to express human NR1H4 protein (referred to as FXR). Reporter cells also incorporate the cDNA encoding beetle luciferase which catalyzes the substrates and yields photon emission. Luminescence intensity of the reaction is quantified using a plate-reading luminometer, Envision. Reporter Cells include the luciferase reporter gene functionally linked to an FXR responsive promoter. Thus, quantifying changes in luciferase expression in the treated reporter cells provides a sensitive surrogate measure of the changes in FXR activity. […] The assay is according to the manufacturer's instructions. In brief, the assay was performed in white, 96 well plates using final volume of 100 uL containing cells with different doses of compounds. Retrieve Reporter Cells from −80° C. storage. Perform a rapid thaw of the frozen cells by transferring a 10 ml volume of 37° C. cell recovery medium into the tube of frozen cells. Recap the tube of Reporter Cells and immediately place it in a 37° C. water bath for 5-10 minutes. Retrieve the tube of Reporter Cell Suspension from the water bath. Sanitize the outside surface of the tube with a 70% alcohol swab, and then transfer it into the cell culture hood. Dispense 90 μl of cell suspension into each well of the 96-well Assay Plate. Transfer the plate into 37° C. incubator, allowing the cells adherent to the bottom of the well. Dilute compounds in Dilution Plate (DP), and administrate to cells at Assay Plate (AP). DMSO content of the samples was kept at 0.2%. Cells were incubated for additional 22 hours before luciferase activities were measured. Thirty minutes before intending to quantify FXR activity, remove Detection Substrate and Detection Buffer from the refrigerator and place them in a low-light area so that they may equilibrate to room temperature. Remove the plate's lid and discard all media contents by ejecting it into an appropriate waste container. Gently tap the inverted plate onto a clean absorbent paper towel to remove residual droplets. Cells will remain tightly adhered to well bottoms. Add 100 μl of luciferase detection reagent to each well of the assay plate. Allow the assay plate to rest at room temperature for at least 5 minutes following the addition of LDR. Set the instrument (Envision) to perform a single 5 second “plate shake” prior to reading the first assay well. Read time may be 0.5 second (500 mSec) per well.

Sequence of human FXR (NR1H4) (Q96RI1 whole entry, the tested form may be a part): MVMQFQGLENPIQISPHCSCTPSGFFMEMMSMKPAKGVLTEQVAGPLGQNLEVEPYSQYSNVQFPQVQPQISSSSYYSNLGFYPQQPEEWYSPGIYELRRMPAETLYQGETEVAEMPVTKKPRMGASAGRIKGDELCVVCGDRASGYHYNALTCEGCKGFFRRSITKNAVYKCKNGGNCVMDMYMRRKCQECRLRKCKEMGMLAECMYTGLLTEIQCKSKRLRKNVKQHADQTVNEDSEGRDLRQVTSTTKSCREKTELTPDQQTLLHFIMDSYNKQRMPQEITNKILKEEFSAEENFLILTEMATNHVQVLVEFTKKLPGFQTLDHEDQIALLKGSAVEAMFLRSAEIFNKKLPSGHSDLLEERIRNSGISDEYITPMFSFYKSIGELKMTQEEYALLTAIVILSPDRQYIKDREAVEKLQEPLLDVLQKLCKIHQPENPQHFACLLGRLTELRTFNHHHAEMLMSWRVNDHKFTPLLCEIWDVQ

Row | SMILES | EC50 [nM] | Emax [%]
1 | CC[C@H]1[C@@H](O)[C@@H]2[C@H](CC[C@]3(C)[C@@H]([C@H](C)CCOC(=O)NCc4ccc(O)cc4)CC[C@@H]23)[C@@]2(C)CC[C@@H](O)C[C@@H]12 [Example 158] | 100 to 1000 | 240
2 | CC[C@H]1[C@@H](O)[C@@H]2[C@H](CC[C@]3(C)[C@@H]([C@H](C)COC(=O)NS(=O)(=O)c4ccc5ncccc5c4)CC[C@@H]23)[C@@]2(C)CC[C@@H](O)C[C@@H]12 [Example 23] | < 100 | 182
3 | CC[C@H]1[C@@H](O)[C@@H]2[C@H](CC[C@]3(C)[C@@H]([C@H](C)CCOC(=O)NC4CCCCC4)CC[C@@H]23)[C@@]2(C)CC[C@@H](O)C[C@@H]12 [Example 127] | 100 to 1000 | 308
4 | CC[C@H]1[C@@H](O)[C@@H]2[C@H](CC[C@]3(C)[C@@H]([C@H](C)COC(=O)NS(=O)(=O)c4cccc(O)c4)CC[C@@H]23)[C@@]2(C)CC[C@@H](O)C[C@@H]12 [Example 38] | 100 to 1000 | 203
5 | CC[C@H]1[C@@H](O)[C@@H]2[C@H](CC[C@]3(C)[C@@H]([C@H](C)CCOC(=O)N4CCC(C(N)=O)CC4)CC[C@@H]23)[C@@]2(C)CC[C@@H](O)C[C@@H]12 [Example 171] | 100 to 1000 | 179
6 | CC[C@H]1[C@@H](O)[C@@H]2[C@H](CC[C@]3(C)[C@@H]([C@H](C)CCOC(=O)NS(=O)(=O)c4ccc(C)cc4)CC[C@@H]23)[C@@]2(C)CC[C@@H](O)C[C@@H]12 [Example 104-b] | < 100 | 363
7 | CC[C@H]1[C@@H](O)[C@@H]2[C@H](CC[C@]3(C)[C@@H]([C@H](C)CCOC(=O)N[C@H]4CCC[C@H]4O)CC[C@@H]23)[C@@]2(C)CC[C@@H](O)C[C@@H]12 [Example 216] | 100 to 1000 | 478
8 | CC[C@H]1[C@@H](O)[C@@H]2[C@H](CC[C@]3(C)[C@@H]([C@H](C)CCOC(=O)NS(=O)(=O)N4CC(F)(F)C4)CC[C@@H]23)[C@@]2(C)CC[C@@H](O)C[C@@H]12 [Example 104-j] | < 100 | 327
9 | CC[C@H]1[C@@H](O)[C@@H]2[C@H](CC[C@]3(C)[C@@H]([C@H](C)CCOC(=O)NS(=O)(=O)c4ccc5ccsc5c4)CC[C@@H]23)[C@@]2(C)CC[C@@H](O)C[C@@H]12 [Example 104-f] | < 100 | 213
10 | CC[C@H]1[C@@H](O)[C@@H]2[C@H](CC[C@]3(C)[C@@H]([C@H](C)CCOC(=O)NS(=O)(=O)c4ccccc4)CC[C@@H]23)[C@@]2(C)CC[C@@H](O)C[C@@H]12 [Example 60] | < 100 | 309
11 | CC[C@H]1[C@@H](O)[C@@H]2[C@H](CC[C@]3(C)[C@@H]([C@H](C)CCOC(=O)N4CCC[C@H]4CO)CC[C@@H]23)[C@@]2(C)CC[C@@H](O)C[C@@H]12 [Example 210] | < 100 | 156
12 | CC[C@H]1[C@@H](O)[C@@H]2[C@H](CC[C@]3(C)[C@@H]([C@H](C)CCOC(=O)Nc4cncc(Cl)c4)CC[C@@H]23)[C@@]2(C)CC[C@@H](O)C[C@@H]12 [Example 194] | 1000 to 10000 | 170
13 | CC[C@H]1[C@@H](O)[C@@H]2[C@H](CC[C@]3(C)[C@@H]([C@H](C)COC(=O)NS(=O)(=O)c4ccc(C(C)(C)C)s4)CC[C@@H]23)[C@@]2(C)CC[C@@H](O)C[C@@H]12 [Example 44-j] | < 100 | 170
14 | CC[C@H]1[C@@H](O)[C@@H]2[C@H](CC[C@]3(C)[C@@H]([C@H](C)CCOC(=O)NCC(C)(C)O)CC[C@@H]23)[C@@]2(C)CC[C@@H](O)C[C@@H]12 [Example 142] | 100 to 1000 | 247
15 | CC[C@H]1[C@@H](O)[C@@H]2[C@H](CC[C@]3(C)[C@@H]([C@H](C)COC(=O)NS(=O)(=O)c4cccc(-c5ncco5)c4)CC[C@@H]23)[C@@]2(C)CC[C@@H](O)C[C@@H]12 [Example 44-i] | 100 to 1000 | 210
16 | CC[C@H]1[C@@H](O)[C@@H]2[C@H](CC[C@]3(C)[C@@H]([C@H](C)CCOC(=O)NS(=O)(=O)c4ccc(C(C)(C)C)cc4)CC[C@@H]23)[C@@]2(C)CC[C@@H](O)C[C@@H]12 [Example 45] | < 100 | 235

Row | SMILES | EC50 [nM] | Emax [%]
17 | CC[C@H]1[C@@H](O)[C@@H]2[C@H](CC[C@]3(C)[C@@H]([C@H](C)CCOC(=O)NS(=O)(=O)c4ccncc4)CC[C@@H]23)[C@@]2(C)CC[C@@H](O)C[C@@H]12 [Example 73] | 1000 to 10000 | 352
18 | CC[C@H]1[C@@H](O)[C@@H]2[C@H](CC[C@]3(C)[C@@H]([C@H](C)CCOC(=O)NS(=O)(=O)c4ccccc4C(C)(C)C)CC[C@@H]23)[C@@]2(C)CC[C@@H](O)C[C@@H]12 [Example 85] | < 100 | 240
19 | CC[C@H]1[C@@H](O)[C@@H]2[C@H](CC[C@]3(C)[C@@H]([C@H](C)CCOC(=O)N4CCC(CC)(CO)CC4)CC[C@@H]23)[C@@]2(C)CC[C@@H](O)C[C@@H]12 [Example 217] | < 100 | 337
20 | CC[C@H]1[C@@H](O)[C@@H]2[C@H](CC[C@]3(C)[C@@H]([C@H](C)CCOC(=O)NS(=O)(=O)c4ccc5c(c4)OCO5)CC[C@@H]23)[C@@]2(C)CC[C@@H](O)C[C@@H]12 [Example 93] | < 100 | 288
21 | CC[C@H]1[C@@H](O)[C@@H]2[C@H](CC[C@]3(C)[C@@H]([C@H](C)COC(=O)NS(=O)(=O)c4ccc(-c5ccc(C(C)(C)C)cc5)cc4)CC[C@@H]23)[C@@]2(C)CC[C@@H](O)C[C@@H]12 [Example 34] | 100 to 1000 | 186
22 | CC[C@H]1[C@@H](O)[C@@H]2[C@H](CC[C@]3(C)[C@@H]([C@H](C)CCOC(=O)N4CCC(O)CC4)CC[C@@H]23)[C@@]2(C)CC[C@@H](O)C[C@@H]12 [Example 169] | 100 to 1000 | 257
23 | CC[C@H]1[C@@H](O)[C@@H]2[C@H](CC[C@]3(C)[C@@H]([C@H](C)CCOC(=O)NC4CCCC4)CC[C@@H]23)[C@@]2(C)CC[C@@H](O)C[C@@H]12 [Example 134] | 100 to 1000 | 267
24 | CC[C@H]1[C@@H](O)[C@@H]2[C@H](CC[C@]3(C)[C@@H]([C@H](C)CCOC(=O)NS(=O)(=O)c4ccc5c(c4)CCCC5)CC[C@@H]23)[C@@]2(C)CC[C@@H](O)C[C@@H]12 [Example 89] | < 100 | 278
25 | CC[C@H]1[C@@H](O)[C@@H]2[C@H](CC[C@]3(C)[C@@H]([C@H](C)CCOC(=O)NCCSC)CC[C@@H]23)[C@@]2(C)CC[C@@H](O)C[C@@H]12 [Example 140] | 100 to 1000 | 246
26 | CCCCCNC(=O)OCC[C@@H](C)[C@H]1CC[C@H]2[C@@H]3[C@H](O)[C@H](CC)[C@@H]4C[C@H](O)CC[C@]4(C)[C@H]3CC[C@]12C [Example 150] | 100 to 1000 | 303
27 | CC[C@H]1[C@@H](O)[C@@H]2[C@H](CC[C@]3(C)[C@@H]([C@H](C)CCCOC(=O)N(C)OC)CC[C@@H]23)[C@@]2(C)CC[C@@H](O)C[C@@H]12 [Example 149] | 1000 to 10000 | 232
28 | CC[C@H]1[C@@H](O)[C@@H]2[C@H](CC[C@]3(C)[C@@H]([C@H](C)COC(=O)NS(=O)(=O)c4cnc5ccccc5c4)CC[C@@H]23)[C@@]2(C)CC[C@@H](O)C[C@@H]12 [Example 24] | < 100 | 193
29 | CC[C@H]1[C@@H](O)[C@@H]2[C@H](CC[C@]3(C)[C@@H]([C@H](C)CCOC(=O)NS(=O)(=O)C(F)(F)F)CC[C@@H]23)[C@@]2(C)CC[C@@H](O)C[C@@H]12 [Example 108] | 1000 to 10000 | 309
30 | CC[C@H]1[C@@H](O)[C@@H]2[C@H](CC[C@]3(C)[C@@H]([C@H](C)COC(=O)NS(=O)(=O)N4CCCC4)CC[C@@H]23)[C@@]2(C)CC[C@@H](O)C[C@@H]12 [Example 13] | 100 to 1000 | 324
31 | CC[C@H]1[C@@H](O)[C@@H]2[C@H](CC[C@]3(C)[C@@H]([C@H](C)CCOC(=O)NCCO)CC[C@@H]23)[C@@]2(C)CC[C@@H](O)C[C@@H]12 [Example 153] | 100 to 1000 | 230
